The target of assay [1] is T1, Coagulation factor X (Homo sapiens, UniProt P00742). The assay can be described thus: Inhibition of human factor 10a at 50 uM.
Assay [2] deals with T2, Plasma kallikrein (Homo sapiens, UniProt P03952). The assay is described as follows: Inhibition of human kallikrein at 50 uM.
Assay [3] concerns the target T3, Coagulation factor XII (Homo sapiens) (UniProt P00748).
T3 sequence (whole entry): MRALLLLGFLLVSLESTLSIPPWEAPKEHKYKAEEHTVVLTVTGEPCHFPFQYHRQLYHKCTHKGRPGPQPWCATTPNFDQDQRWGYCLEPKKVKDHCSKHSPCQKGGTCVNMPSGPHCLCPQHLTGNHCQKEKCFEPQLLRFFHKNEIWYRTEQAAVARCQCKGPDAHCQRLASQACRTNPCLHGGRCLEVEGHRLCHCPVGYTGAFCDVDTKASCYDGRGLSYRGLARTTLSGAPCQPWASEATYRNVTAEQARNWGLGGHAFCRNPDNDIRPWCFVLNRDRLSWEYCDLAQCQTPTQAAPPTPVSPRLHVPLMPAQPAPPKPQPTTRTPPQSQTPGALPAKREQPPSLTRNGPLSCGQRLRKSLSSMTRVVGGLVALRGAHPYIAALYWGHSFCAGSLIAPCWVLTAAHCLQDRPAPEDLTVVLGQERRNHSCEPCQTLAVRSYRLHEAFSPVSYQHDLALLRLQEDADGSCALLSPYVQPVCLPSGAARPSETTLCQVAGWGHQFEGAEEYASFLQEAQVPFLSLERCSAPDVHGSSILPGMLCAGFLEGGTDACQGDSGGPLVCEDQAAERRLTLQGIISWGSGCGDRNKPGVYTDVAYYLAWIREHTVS
The assay can be described thus: Inhibition of human factor 12a at 50 uM.

Assay [4] addresses Coagulation factor VII/tissue factor (Homo sapiens) (UniProt P08709+P13726). The assay can be described thus: Inhibition of human tissue factor/factor 7a at 50 uM.
Assay [5] addresses T4, Prothrombin (Homo sapiens, UniProt P00734). The assay is described as follows: Inhibition of human thrombin at 50 uM.
The target in assay [6] is T2, Plasma kallikrein. The assay is described as follows: Inhibition of human kallikrein.
For assay [7], the target named is T1, Coagulation factor X. The assay can be described thus: Inhibition of human factor 10a.
For assay [8], the target named is T4, Prothrombin. The assay can be described thus: Inhibition of human thrombin.
The target of assay [9] is T5, Coagulation factor XII (Homo sapiens, UniProt P00748).
T5 sequence (P00748 whole entry): T3 sequence (whole entry)
The assay is described as follows: Inhibition of human factor 12a.

The target in assay [10] is Coagulation factor VII/tissue factor (Homo sapiens, UniProt P08709). The assay can be described thus: Inhibition of human tissue factor/factor 7a. Format: protein-complex assay.

SMILES strings stand for the structures. Active and inactive are the calls of the source. The calls are words filed in the database; no cut-off is given here. Non-standard residues stand in square brackets, D forms with d. Residues, ends and D or L forms follow the SMILES beside them. *: point of attachment. CH2Cl = ClC*

T1 sequence (P00742 41-179 limits assumed): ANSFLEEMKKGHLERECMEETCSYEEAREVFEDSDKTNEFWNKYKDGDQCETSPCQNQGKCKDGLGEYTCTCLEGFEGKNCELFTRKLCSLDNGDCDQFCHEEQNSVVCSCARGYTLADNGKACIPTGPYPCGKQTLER
T1 sequence (P00742 235-488 limits assumed): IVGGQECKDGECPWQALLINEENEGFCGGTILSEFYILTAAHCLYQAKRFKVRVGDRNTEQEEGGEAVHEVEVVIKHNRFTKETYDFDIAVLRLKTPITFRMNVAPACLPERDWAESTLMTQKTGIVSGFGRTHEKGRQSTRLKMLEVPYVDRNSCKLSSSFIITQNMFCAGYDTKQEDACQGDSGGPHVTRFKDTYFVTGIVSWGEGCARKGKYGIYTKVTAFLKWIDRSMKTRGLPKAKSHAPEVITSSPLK
T2 sequence (P03952 20-390 limits assumed): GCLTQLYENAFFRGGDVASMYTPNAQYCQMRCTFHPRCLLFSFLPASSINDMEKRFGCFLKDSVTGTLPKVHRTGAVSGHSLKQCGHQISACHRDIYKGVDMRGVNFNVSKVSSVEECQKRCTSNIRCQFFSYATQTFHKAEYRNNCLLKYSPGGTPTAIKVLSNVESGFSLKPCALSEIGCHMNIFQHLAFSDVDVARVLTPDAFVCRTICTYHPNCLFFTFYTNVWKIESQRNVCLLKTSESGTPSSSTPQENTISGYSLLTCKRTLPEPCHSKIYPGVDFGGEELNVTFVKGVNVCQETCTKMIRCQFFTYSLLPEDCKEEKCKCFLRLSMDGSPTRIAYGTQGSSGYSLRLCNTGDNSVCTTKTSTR
T2 sequence (P03952 391-638 limits assumed): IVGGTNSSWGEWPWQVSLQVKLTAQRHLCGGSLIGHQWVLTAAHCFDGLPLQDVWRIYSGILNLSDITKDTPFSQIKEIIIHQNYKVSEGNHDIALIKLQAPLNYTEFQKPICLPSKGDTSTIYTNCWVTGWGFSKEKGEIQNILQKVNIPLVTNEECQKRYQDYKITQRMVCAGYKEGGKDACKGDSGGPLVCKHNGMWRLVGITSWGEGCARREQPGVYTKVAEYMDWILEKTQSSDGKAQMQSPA
Chain of Coagulation factor VII/tissue factor (P08709 61-212 limits assumed): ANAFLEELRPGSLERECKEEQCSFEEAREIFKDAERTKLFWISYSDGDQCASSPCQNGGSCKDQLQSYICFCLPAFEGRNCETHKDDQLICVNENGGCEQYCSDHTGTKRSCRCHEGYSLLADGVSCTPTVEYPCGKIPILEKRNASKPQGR
Chain of Coagulation factor VII/tissue factor (P08709 213-466 limits assumed): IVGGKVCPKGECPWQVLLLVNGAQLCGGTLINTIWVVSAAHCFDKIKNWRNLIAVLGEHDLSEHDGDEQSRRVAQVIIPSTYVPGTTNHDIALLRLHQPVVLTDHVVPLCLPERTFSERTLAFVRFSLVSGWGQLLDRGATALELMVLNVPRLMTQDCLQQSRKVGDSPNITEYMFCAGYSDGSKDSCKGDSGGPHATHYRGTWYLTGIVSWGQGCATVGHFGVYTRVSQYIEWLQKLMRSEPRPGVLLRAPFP
Chain of Coagulation factor VII/tissue factor (P13726 33-295 partner limits assumed): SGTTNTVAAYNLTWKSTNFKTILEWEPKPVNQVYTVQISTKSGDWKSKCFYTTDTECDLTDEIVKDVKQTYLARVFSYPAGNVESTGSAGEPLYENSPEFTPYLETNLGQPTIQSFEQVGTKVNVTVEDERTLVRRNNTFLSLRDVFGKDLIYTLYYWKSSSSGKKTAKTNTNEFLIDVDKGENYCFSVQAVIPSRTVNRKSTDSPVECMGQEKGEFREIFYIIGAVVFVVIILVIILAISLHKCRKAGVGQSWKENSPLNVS

`Cc1ccc2oc(=O)c(C(=O)NC3CCCCC3)cc2c1`: the result in assay [1], in assay [2], in [3], in assay [4] and in assay [5] was inactive.

In the case of `NC(N)=NCCC[C@H](NC(=O)[C@H](Cc1ccccc1)NC(=O)[C@H]1CCCN1)C(=O)CCl` (H-[dP]-Phe-Arg-CH2Cl), the IC50 (usually the concentration that inhibits the measured activity by half) in assay [6] was found to be 0.031 µM; in [7], 1.9 µM; in assay [8] it was 2.5 µM; in [9], 0.18 µM; in [10], 1.5 µM.

On to `Cc1ccc2oc(=O)c(C(=O)NC3CCCCCCCCCCC3)cc2c1`, for which the outcome in assay [1], in [2], in assay [4] and in assay [5] was inactive. In assay [9], this molecule returned an IC50 of 33 µM.

Regarding `Cc1ccc2oc(=O)c(C(=O)Oc3ccccc3)cc2c1`, the result in assay [1], in [2], in assay [3], in [4] and in [5] was inactive.

Turning to `Cc1cccc(NC(=O)c2cc3cc(Cl)cc(Br)c3oc2=O)c1`, the outcome in assay [1] and in assay [2] was inactive. Also, the values for the IC50 in assay [8], in assay [9] and in [10] were greater than 50 µM, 10 µM and greater than 50 µM, respectively.

Turning to `COc1cc(Br)cc2cc(C(=O)Nc3ccccc3)c(=O)oc12`, the outcome in assay [1] and in assay [2] was inactive. The IC50 in assay [8], in assay [9] and in [10] was greater than 50 µM in each case.

For the molecule `Cc1ccc2oc(=O)c(C(=O)Nc3ccccc3Cl)cc2c1`, the result in assay [1], in [2] and in [4] was inactive. The IC50 was greater than 50 µM in assay [8] and 30 µM in [9].

With `Cc1ccc2oc(=O)c(C(=O)NC(C)C)cc2c1`, the outcome in assay [1], in assay [3] and in assay [5] was inactive. The IC50 in [6] and in assay [10] was greater than 50 µM in each case.

Take `Cc1ccc2oc(=O)c(C(=O)NC34CC5CC(CC(C5)C3)C4)cc2c1`: the result in assay [1], in [2], in assay [4] and in [5] was inactive. For the same molecule, in assay [9], the IC50 came to 29 µM.

On to `Cc1ccc2oc(=O)c(C(=O)NCc3cccc4ccccc34)cc2c1`, for which the outcome in [1], in assay [2] and in [4] was inactive. For the same molecule, the IC50 was greater than 50 µM in [8] and 15 µM in [9].

For the molecule `O=C(Nc1ccccc1)c1cc2cc(Br)ccc2oc1=O`, the result in assay [1], in [2], in [4] and in [5] was inactive. This molecule had an IC50 in assay [9] of 24 µM.

Consider `Cc1cc(C)cc(NC(=O)c2cc3cc(C)ccc3oc2=O)c1`, for which the result in assay [1], in [2] and in [4] was inactive. The IC50 in [8] was greater than 50 µM; in assay [9], 9.8 µM.

Take `O=C(Nc1ccccc1)c1cc2cc(CCl)ccc2oc1=O`: the result in assay [2] and in [4] was inactive. Further, the IC50 in assay [7] was greater than 50 µM; in assay [8], greater than 50 µM; in [9], 17 µM.

With `Cc1ccc2oc(=O)c(C(=O)NCCc3ccccc3)cc2c1`, the result in assay [1], in assay [2], in assay [4] and in [5] was inactive. The same molecule showed an IC50 in assay [9] greater than 50 µM.

In the case of `O=C(Nc1ccccc1)c1cc2ccccc2oc1=O`, the outcome in assay [1], in assay [2], in assay [4] and in assay [5] was inactive. The molecule further had an IC50 in assay [9] of 42 µM.

Consider `O=C(Nc1ccccc1)c1cc2cc([N+](=O)[O-])ccc2oc1=O`, for which the outcome in [1], in assay [2], in assay [4] and in assay [5] was inactive. The molecule further displayed an IC50 in assay [9] of 22 µM.

As to `Cc1cccc(NC(=O)c2cc3cc(Cl)cc(Cl)c3oc2=O)c1`, the outcome in assay [1], in assay [2], in assay [4] and in assay [5] was inactive. In addition, the IC50 in assay [9] was 25 µM.

For `CCN(CC)c1ccc2cc(C(=O)Nc3ccccc3)c(=O)oc2c1`, the result in assay [1], in assay [3] and in [5] was inactive. In addition, the IC50 in [6] and in assay [10] was greater than 50 µM throughout.

As for `Cc1ccc2oc(=O)c(C(=O)Nc3ccccc3C)cc2c1`, the outcome in assay [1], in [2] and in assay [4] was inactive. The results for the IC50 in assay [8] and in assay [9] were greater than 50 µM and 32 µM, respectively.

Regarding `COc1cccc2cc(C(=O)Nc3ccccc3)c(=O)oc12`, the IC50 in assay [6] and in [7] was greater than 50 µM each time. The outcome in assay [3], in assay [4] and in [8] was inactive.

Regarding `Cc1ccc(NC(=O)c2cc3cc(C)ccc3oc2=O)cc1`, the result in assay [1] and in assay [2] was inactive. Further, the values for the IC50 in assay [8], in assay [9] and in [10] were greater than 50 µM, 20 µM and greater than 50 µM, respectively.

For the molecule `Cc1ccc2oc(=O)c(C(=O)Nc3cccc(Cl)c3)cc2c1`, the result in assay [1], in [2], in [4] and in assay [5] was inactive. Moreover, in assay [9], the IC50 was found to be 31 µM.

`Cc1cccc(NC(=O)c2cc3cc(C)ccc3oc2=O)c1`: the outcome in assay [1], in [2] and in assay [4] was inactive. The IC50 in assay [8] is greater than 50 µM; in assay [9] it was 10 µM.

Consider `O=C(Nc1ccccc1)c1cc2cc(Cl)cc(Cl)c2oc1=O`, for which the result in assay [1], in assay [4] and in assay [5] was inactive. In addition, the IC50 in [6] was greater than 50 µM; in assay [9], 19 µM.

As to `Cc1ccc2oc(=O)c(C(=O)Nc3ccccc3)cc2c1`, the outcome in assay [1] and in assay [4] was inactive. Further, the IC50 in assay [6] was greater than 50 µM; in assay [8] it was greater than 50 µM; in assay [9] it was 23 µM.

For the molecule `Cc1ccc2oc(=O)c(C(=O)NCc3ccccc3)cc2c1`, the result in assay [1], in assay [2], in assay [4] and in assay [5] was inactive. Also, the IC50 in [9] was greater than 50 µM.

Turning to `O=C(Nc1ccccc1)c1cc2ccc(O)cc2oc1=O`, the IC50 in assay [6], in [7] and in [8] was greater than 50 µM each time. Also, the outcome in assay [3] and in [4] was inactive.

Take `O=C(Oc1ccccc1)c1cc2ccccc2oc1=O`: the result in assay [1], in assay [2], in assay [3], in [4] and in assay [5] was inactive.

For `O=C(Oc1ccccc1)c1cc2cc(CCl)ccc2oc1=O`, the result in assay [2] and in [4] was inactive. The IC50 is greater than 50 µM in assay [7], 7 µM in [8] and greater than 50 µM in [9].

With `COc1ccc2cc(C(=O)Nc3ccccc3)c(=O)oc2c1`, the IC50 in [6], in assay [7] and in assay [8] was greater than 50 µM each time. Besides, the outcome in [3] and in [4] was inactive.

With `Cc1ccc2oc(=O)c(C(=O)Nc3cnc4ccccc4c3)cc2c1`, the outcome in assay [1], in [2], in assay [4] and in assay [5] was inactive. For the same molecule, the IC50 in [9] came out at 8.3 µM.

With `Cc1ccc2oc(=O)c(C(=O)Nc3ccc(Cl)cc3)cc2c1`, the outcome in assay [1], in assay [2] and in [4] was inactive. The IC50 in [8] was greater than 50 µM; in [9], 34 µM.

The values are drawn from ChEMBL document CHEMBL1150342, “Novel 3-carboxamide-coumarins as potent and selective FXIIa inhibitors” (J Med Chem, 2008).
